Among the data in publication PMC11908749 (Chemistry & Biodiversity, 2025) are IC50 values, retold here.

Common to all, as to type: cell-based
Assay [1] concerns U‐251 (human glioblastoma cell line). The experiment in a line: SRB cytotoxicity, U-251 cells. The conditions noted are these: read-out: IC50 U‐251, non-linear regression.
The test system of assay [2] is MCF‐7 (human mammary adenocarcinoma). The experiment in a line: SRB cytotoxicity, MCF-7 cells. The conditions noted are these: read-out: IC50 MCF‐7, non-linear regression.
Assay [3] concerns SK‐LU‐1 (human lung adenocarcinoma). The assay can be described thus: SRB cytotoxicity, SK-LU-1 cells. The conditions noted are these: read-out: IC50 SK‐LU‐1, non-linear regression.

By IC50 is commonly meant the concentration needed to halve the response being measured.

curcumin: the IC50 in assay [1] was 20.5 ± 1.7 µM; in assay [2], 18.4 ± 0.9 µM; in assay [3], 12.9 ± 0.7 µM.
